In patent US8114406B2, “Peptides and their utility in modulation of behavior of cells expressing α3β1 integrins” (The United States of America as represented by the …, priority 1999, dated 2012):
Where no end group is shown, it is not given here.

Legend:
[1] = test system: MDA-MB-435 breast carcinoma cells
Experimental: MDA-MB-435 cell adhesion to microliter plate wells coated with 5 uM peptide 678 was determined in the presence of the indicated concentrations of soluble carboxamidomethyl-peptide 716 or peptide 716 covalently linked to FICOLL™ as previously described (Guo et al., 1997). After washing twice to remove unattached cells, adherent cells were quantified by detection of cellular hexosaminidase using p-nitrophenyl-N-acetylglucosaminide as substrate. Released p-nitrophenol was detected by absorbance at 405 nm. Results are mean+/−SD, n=3.
In this case, the adherent cells are quantified by detection of cellular hexosaminidase using p-nitrophenyl-N-acetylglucosaminidine as substrate. Released p-nitrophenol is detected by absorbance at 405 nm.

BAE cells [2] = conditions: added in solution
Experimental: (§1) Briefly, 100 μl of a 5×10^4 cell/ml suspension of BAE cells were seeded in triplicate into 96 well tissue culture plate in DMEM medium containing 1% FCS, 10 ng/ml of FGF2 and peptides at 1-40 μM concentrations. Cells were incubated for 72 h, and proliferation was measured using the Celltiter tetrazolium assay (Promega). […] Proliferation was determined at 72 h, and is presented as a percent of the control, mean±S.D., n=3 for experimental points and n=6 for control. […] FIG. 19E: HDME cell proliferation in MCDB growth medium with 5% FCS was determined in the presence of 10 ng/ml FGF2 and the indicated concentrations of TSP1 added in the medium (Δ) or immobilized on the substrate (●) or in wells coated with the indicated concentrations of peptide 678 (●).
(§2) Cell proliferation was measured using the Cell-Titer colorimetric assay (Promega) as previously described (Vogel et al., 1993). A 100 μl volume of BAE cell suspension at 50,000 cells/ml in DMEM containing 1% FBS and supplemented with 10 ng/ml FGF2 was plated in triplicate in 96 well tissue culture plates either in the presence of peptides in solution or in wells that were pre-coated with 100 μl of the peptides at 40° C. overnight and aspirated just before adding cells. Cells were grown for 72 hours at 37° C. in a humidified incubator with 5% CO2. […] HDME cell proliferation was measured in MCDB growth medium without heparin, VEGF, or FGF2.

HDME cells [3] = assay: HDME cell proliferation; assay type: cell-based, human
Experimental: as §1, §2

MDA-MB-435 cells = assay: MDA-MB-435 cell chemotaxis in modified Boyden chambers; assay type: cell-based, human; conditions: peptide in lower well; 7 h
Experimental: FIGS. 10A and 10B display the measurement of MDA-MB-435 cell chemotaxis. Panel A: Dose-dependence for stimulation of MDA-MB-435 cell motility by peptide 678 added to the lower well of a modified Boyden chamber. Cells migrated to the lower surface of an 8 μm pore polycarbonate filter were quantified microscopically after 7 h, mean±SD, n=3 for a representative experiment. […] Chemotaxis of untreated cells (striped bars) or cells treated with 10 nM IGF1 in the upper chamber (solid bars) was determined after 7 h and is presented as mean±S.D., n=3.

BAE cells [4] = assay: Scratch wound repair of BAE cells; assay type: cell-based, bovine; conditions: cells arrested using 5-fluorouracil; 24 h
Experimental: BAE cells were seeded at a density of 2×10^5 cells/well of 6 well tissue culture plates in complete growth medium supplemented with 10% FBS. After the cells formed a confluent cobblestone, cells were arrested using 10 μg/ml 5-fluorouracil for 48 h. Scrape wounds of 2 mm, width were made in the wells, and the cells were further incubated with medium containing 10% FBS, 10 μg/ml 5 fluorouracil and peptides 678, 709, or 690. Measurements of the distance between the wound margins were taken at 0 and 24 h, and the net migration is expressed as mean±SEM for triplicates.
The in vitro wound healing assay used was a slight modification of that described by Joyce et al. (Joyce et al., 1989). A confluent monolayer of BAE cells pretreated with 10 μg/ml 5-fluorouracil for […] were used in this assay. […] Mitosis of the BAE cells in the monolayers was inhibited by addition of 5-fluorouracil, so that the rate of wound closure was due solely to the migration of cells into the wound sites. The distances between the wound margins were measured as soon as the wound was made and 24 hours later using a grid incorporated into the eye piece of the microscope. All data represent the results obtained from three independent scratch wounds for each peptide tested.

HUVE cells = assay: HUVE cell proliferation; assay type: cell-based, human
Experimental: Briefly, 100 μl of a 5×10^4 cell/ml suspension of BAE cells were seeded in triplicate into 96 well tissue culture plate in DMEM medium containing 1% FCS, 10 ng/ml of FGF2 and peptides at 1-40 μM concentrations. Cells were incubated for 72 h, and proliferation was measured using the Celltiter tetrazolium assay (Promega). […] Proliferation was determined at 72 h, and is presented as a percent of the control, mean±S.D., n=3 for experimental points and n=6 for control.
Cell proliferation was measured using the Cell-Titer colorimetric assay (Promega) as previously described (Vogel et al., 1993). A 100 μl volume of BAE cell suspension at 50,000 cells/ml in DMEM containing 1% FBS and supplemented with 10 ng/ml FGF2 was plated in triplicate in 96 well tissue culture plates either in the presence of peptides in solution or in wells that were pre-coated with 100 μl of the peptides at […] overnight and aspirated just before adding cells. Cells were grown for 72 hours at 37° C. in a humidified incubator with 5% CO2. HUVEC proliferation was measured by the same protocol but using medium 199 containing 5% FCS without heparin. HDME cell proliferation was measured in MCDB growth medium without heparin, VEGF, or FGF2.

HDME cells [5] = assay: HDME cell spreading on coated substrates; assay type: cell-based, human
Experimental: Spreading was determined microscopically for cells with no additions, in the presence of 10 μM peptide 678, or in the presence of 30 μM of the control peptide 690. Results are presented as mean±SD, n=3. […] The percent spread cells was determined at 60 min.
Adhesion assays of cells other than small cell lung carcinoma (SCLC)-Adhesion was measured on polystyrene or glass substrates coated with peptides or proteins as previously described (Guo et al., 1992). Peptides dissolved in PBS at 0.4 to 50 μM were incubated in polystyrene microliter plate wells overnight at 4° C. The wells were washed 3 times with distilled water. Adsorbed peptide was quantified using the BCA assay (Pierce Chemical) measuring absorbance at 570 and 630 nm as described by the supplier's protocol. The assay for adsorption was calibrated using purified peptide in solution as a standard. After blocking with 1% BSA in Dulbecco's PBS, adhesion assays were performed by adding cells suspended in DMEM (BAE cells) or medium 199 (human cells) containing 1 mg/ml BSA. Cell attachment and spreading was quantified microscopically.

[6] = test system: chick chorioallantoic membrane (CAM) angiogenesis; assay: Chick chorioallantoic membrane (CAM) angiogenesis assay; assay type: in vivo, chicken; conditions: for Angiogenic response (% inhibition): relative to control gels, mean ± SD
Experimental: Fertilized Leghorn chicken eggs were obtained from Ramona Duck farm (Westminster, Calif.). At day 3 of development, the embryos were placed on 100 mm petri dishes. Assays were performed as previously described (Iruela-Arispe et al., 1999). […] Peptides were filtered on Centricon P100 prior to their analysis on the CAM assays to eliminate traces of endotoxin. Pellets were applied to the outer ⅓ of the CAM, and the assay was performed for 24 h. Detection of capillary growth was done by injection of FITC-dextran in the bloodstream and observation of the pellets under a fluorescent inverted microscope. Positive controls (growth factors and vehicle), as well as negative controls (vehicle alone) were placed in the same CAM and used as reference of 100% stimulation or baseline inhibition (0%), and response to the peptides was determined according to these internal controls. Assays were performed in duplicate in each CAM and in four independent CAMs (total of 8 pellets).

OH1 SCLC cells = assay type: cell-based, human; conditions: 72 h
Experimental: Net, proliferation was determined by the CellTiter assay (Promega) and is presented as mean±SD, n=3. […] The cells were fixed and photographed using Nomarski optics. Bar=100 μm. […] Panel E: α3β1 Integrin ligands cooperate with EGF to inhibit OH1 cell proliferation. […] Net proliferation is presented as a percent of the -EGF control (mean±SD, n=3 for treated groups and n=6 for control groups).
Proteins and peptides were immobilized on Nunc Maxisorp 96 well plates by overnight incubation with the proteins or peptides dissolved in 50 μl of sterile Dulbecco's PBS. The supernatant fluid was removed, and the wells were incubated for 30 min. in DPBS containing 1% BSA. OH1 cells (1×10^4/well) were added in RPMI containing 15% FCS and incubated for 72 h at 37° in 5% CO2. For assessing inhibition by soluble proteins or peptides, OH1 cells were grown in suspension in Nunclon 96 well tissue culture plates using the same medium.

Question: Which IC50 [1] does the source give for FQGVLQNVRFVF [Peptide 678] here?
Answer: Its IC50 is 15 µM.

Question: And the “inhibition of BAE cell proliferation” value (BAE cells [2])?
Answer: Its value is “inhibited”.

Question: And the “HDME cell proliferation after plating on immobilized substance” value (HDME cells [3])?
Answer: Its value is “enhancement”.

Question: And the “concentration of maximal chemotactic response” value (MDA-MB-435 cells)?
Answer: The value was 10 µM.

Question: And the “inhibition of BAE cell migration into the wound” value (BAE cells [4])?
Answer: Its value is “dose-dependent inhibitor”.

Question: What about the “HUVE cell proliferation, peptide in solution” value (HUVE cells; added in solution) of the same sequence?
Answer: Its value is “significantly inhibited”.

Question: What about the “HUVE cell proliferation on immobilized peptide” value (HUVE cells; immobilized on the substrate) of the same sequence?
Answer: Its value is “increased their proliferation”.

Question: And the “percent spread HDME cells on immobilized substrate” value (HDME cells [5]; cells from sparse culture)?
Answer: Its value is 28%.

Question: And the “percent spread HDME cells on immobilized substrate” value (HDME cells [5]; cells harvested from a confluent monolayer)?
Answer: The value was “No spreading”.

Question: What about the “Angiogenic response (% inhibition)” value ([6]; 5 μM peptide) of the same sequence?
Answer: The value was 2 ± 5%.

Question: What about the “Angiogenic response (% inhibition)” value ([6]; 10 μM peptide) of the same sequence?
Answer: The value was 17 ± 7%.

Question: And the “Angiogenic response (% inhibition)” value ([6]; 20 μM peptide)?
Answer: Its value is 37 ± 9%.

Question: What about the “angiogenesis stimulated by FGF2” value ([6]; 20 micromolar) of the same sequence?
Answer: Its value is 68±5 % of control.

Question: And the “angiogenesis stimulated by VEGF” value ([6]; 20 micromolar)?
Answer: Its value is 73±7 % of control.

Question: And the “angiogenesis stimulated by a mixture of both growth factors” value ([6]; 20 micromolar)?
Answer: The value was 59±5 % of control.

Question: And the IC50 (OH1 SCLC cells)?
Answer: The IC50 was 6 µM.
